This experiment has as its system Thymidine kinase (Human herpesvirus 1). As to conditions: Human alphaherpesvirus 1.

Regarding `Nc1ncnc2c1ncn2[C@H]1C[C@H](O)[C@@H](CO)O1`, the ID50 was above 1000 µM.

For the origin of these results see ChEMBL document CHEMBL1125350, “L-thymidine is phosphorylated by herpes simplex virus type 1 thymidine kinase and inhibits viral growth” (J Med Chem, 1992).
